These results are taken from the Deep4Chem optical property database.

The structures appear in SMILES notation.

A short description of this data set: solvent given as SMILES.

As for `Oc1ccccc1/C=N/c1cc2nc3ccccc3nc2cc1/N=C/c1ccccc1O`, for the setting “in CC#N”, the emission maximum was 501 nm.
`CCCCCCCCCn1c(-c2cc(-c3nc4ccccc4n3CCCCCCCCC)cc(-c3nc4ccccc4n3CCCCCCCCC)c2)nc2ccccc21`: the emission maximum (in C1CCOC1) is 361.1 nm.
For the compound `CCOC(=O)CCCCCn1c2ccc(Cl)cc2c(=O)c2cc3c(cc21)c(=O)c1cc(Cl)ccc1n3CCCCCC(=O)OCC`, the emission maximum (in CO) is 556 nm.
As for `CCCCC(CC)CN1C(=O)c2cccc3c(C#Cc4ccc(N(c5ccccc5)c5ccc(C#Cc6ccc7c8c(cccc68)C(=O)N(CC(CC)CCCC)C7=O)cc5)cc4)ccc(c23)C1=O` (centres undefined), the emission maximum is given as 472 nm (in C1CCCCC1); 631 nm (in C1CCOC1); 549 nm (in CC#N); 514 nm (in Cc1ccccc1); 587 nm (in ClC(Cl)Cl).
As for `CC[n+]1c(C=C2C(=O)C(C=C3Sc4cc(Cl)ccc4N3C)=C2[O-])[se]c2ccccc21`, the emission maximum is recorded as 674 nm (in CO) and 699 nm (in ClC(Cl)Cl).
As to `c1ccc(-c2nc(-c3c[nH]c4ccccc34)n3ccccc23)cc1`, the emission maximum runs as follows: (in C1CCCCC1) 482 nm; (in CC#N) 506 nm; (in CO) 500 nm; (in ClCCl) 506 nm; (in O) 507 nm.
On to `Cc1ccccc1-c1ccccc1C`, for which, for the setting “in C1CCCCC1”, the emission maximum was 318.98 nm.
As to `C(=C(c1ccccc1)c1ccccc1)c1ccc(C=C(c2ccccc2)c2ccccc2)cc1`, the emission maximum (in C1CCOC1) was found to be 461 nm.
For `C[n+]1ccc(/C=C/c2cc[n+](C)cc2)cc1`, the emission maximum (in CC#N) was determined as 372 nm.
Compound `COc1ccc2c(c1)-c1ccccc1C2=O` showed an emission maximum (in C1CCCCC1) of 472 nm, an emission maximum (in CC#N) of 510 nm and an emission maximum (in CCO) of 549 nm.
On to `COc1ccc(CCNC(=O)c2sc(-c3ccc(-c4cc(-c5ccc(C(C)(C)C)cc5)c(C(=O)NCCc5ccc(OC)c(OC)c5)s4)s3)cc2-c2ccc(C(C)(C)C)cc2)cc1OC`, for which, under “in ClCCl”, the emission maximum is 449 nm.
As for `Cc1ccc(-n2c3ccccc3c3cc(C=C(C#N)C#N)ccc32)cc1`, the emission maximum (in C1CCOC1) came out at 454 nm; the emission maximum (in CC#N) turned out to be 516 nm; the emission maximum (in CC(C)=O) amounted to 502 nm; the emission maximum (in CCOC(C)=O) is 474 nm; the emission maximum (in CO) came to 519 nm; the emission maximum (in CS(C)=O) was determined as 524 nm. For the same compound, the emission maximum is on record as 454 nm (in Cc1ccccc1) and 478 nm (in ClC(Cl)Cl).
`CC1(C)c2ccccc2-c2sc3ccccc3c21` displayed an emission maximum (in ClCCl) of 354 nm.
In turn, `CC1=CC(C)=[N+]2C1=C(c1ccc(I)cc1)c1c(C)cc(C)n1[B-]2(Oc1ccccc1)Oc1ccccc1` gave an emission maximum (in ClC(Cl)Cl) of 517.5 nm.
Turning to `Cc1ccc([C@@H]2C[C@](O)(c3ccccn3)C[C@](O)(c3ccccn3)[C@H]2C(=O)c2ccc(N(c3ccccc3)c3ccccc3)cc2)cc1`, the emission maximum runs as follows: (in C1CCOC1) 495 nm; (in CC#N) 525 nm; (in CCO) 511 nm; (in CCOC(C)=O) 496 nm; (in CN(C)C=O) 523 nm; (in ClCCl) 516 nm. The same compound returned an emission maximum (in c1ccccc1) of 466 nm.
Take `Cc1cc(C)c(C2=C3C=C(c4ccc(C(C)(C)C)cc4)C(c4ccc(C(C)(C)C)cc4)=[N+]3[B-](F)(F)n3c2cc(-c2ccc(C(C)(C)C)cc2)c3-c2ccc(C(C)(C)C)cc2)c(C)c1`: the emission maximum by setting is: (in C1CCCCC1) 639 nm; (in C1CCOC1) 628 nm; (in CC#N) 643 nm; (in Cc1ccccc1) 645 nm; (in ClCCl) 644 nm.
Under “in CCO”, `CN1c2cc3nc4cc(Br)c(Br)cc4nc3cc2N(C)C1(C)C` came in with an emission maximum of 500 nm.
With `CCCCCCOc1ccc(C#Cc2ccc(C#Cc3ccc(OCCCCCC)c(OCCCCCC)c3)c3nsnc23)cc1OCCCCCC`, the emission maximum reads like this: (in C1CCCCC1) 504 nm; (in CCOC(C)=O) 550 nm; (in CN(C)C=O) 600 nm; (in COc1ccccc1) 561 nm; (in Cc1ccccc1) 537 nm; (in ClC(Cl)Cl) 580 nm. Besides, the emission maximum came out at 581 nm (in ClCCCl) and 577 nm (in ClCCl).
`O=c1cc(-c2ccccc2)oc(-c2nc3ccccn3c2NC2CCCCC2)c1`: the emission maximum (in ClCCl) turned out to be 475 nm.
`CCCCCCCCN1C(=O)c2ccc3c4c(-c5ccc6c7ccccc7n(-c7ccccc7)c6c5)cc5c6c(cc(-c7ccc8c9ccccc9n(-c9ccccc9)c8c7)c(c7ccc(c2c37)C1=O)c64)C(=O)N(CCCCCCCC)C5=O` yielded an emission maximum (in ClC(Cl)Cl) of 644 nm.
Take `COc1cccc2cc(-c3ccc([N+](=O)[O-])cc3)c(=N)oc12`: the emission maximum stood at 374 nm (in C1CCOC1), 366 nm (in CC#N), 392 nm (in CS(C)=O) and 380 nm (in ClC(Cl)Cl).
Take `Cc1ccc(-c2cc(-c3ccccc3Cl)c3c(N)nc(N4CCCC4)c(C#N)c3n2)cc1`: the emission maximum (in CC#N) was 526 nm; the emission maximum (in CC(C)=O) was 522 nm; the emission maximum (in CC(C)O) turned out to be 516 nm; the emission maximum (in CO) stood at 525 nm; the emission maximum (in ClC(Cl)Cl) is recorded as 508 nm; the emission maximum (in ClCCl) was 514 nm. Besides, the emission maximum (in c1ccccc1) is 512 nm.
Where the note is “in CCO”, `COc1cc2c(cc1F)c(=O)c1cc(F)c(OC)cc1n2Cc1ccccc1` gave an emission maximum of 416 nm.
For the compound `CC(C)(C)c1ccc(N(c2ccc(C(C)(C)C)cc2)c2ccc3c(N(c4ccc(C(C)(C)C)cc4)c4ccc(C(C)(C)C)cc4)cc4c5cc(N(c6ccc(C(C)(C)C)cc6)c6ccc(C(C)(C)C)cc6)ccc5c(N(c5ccc(C(C)(C)C)cc5)c5ccc(C(C)(C)C)cc5)cc4c3c2)cc1`, the emission maximum runs as follows: (in CC#N) 470 nm; (in CCCCCC) 456 nm; (in ClCCl) 471 nm.
Consider `C(S/C=C/c1ccc(-c2ccc(/C=C/SC=C3CCCCCC3)cc2)cc1)=C1CCCCCC1`, for which the emission maximum (in ClCCl) is 434 nm.
With `CCOC(=O)c1sc2nc3c(c(C#N)c2c1N)CCCC3`, the emission maximum (in c1ccccc1) is on record as 545 nm.
Compound `Cc1cc2nc3[nH]c(=O)[nH]c(=O)c3nc2cc1C` came in with an emission maximum (in CC#N) of 437 nm.
`CCOC(=O)c1sc(SC)c2c(=O)[nH]nnc12` showed an emission maximum (in C1CCOC1) of 465 nm; an emission maximum (in CC#N) of 478 nm; an emission maximum (in CCO) of 492 nm; an emission maximum (in CN(C)C=O) of 478 nm; an emission maximum (in CO) of 499 nm; an emission maximum (in CS(C)=O) of 491 nm.
As for `CC1(C)CC(=O)c2ccccc2N1`, the emission maximum by setting is: (in CC#N) 439 nm; (in CCO) 483 nm.
The compound `CCCCC1(CCCC)c2cc(/C=C/c3ccc(N(c4ccccc4)c4ccccc4)cc3)ccc2-c2cc3c(cc21)-c1ccc(/C=C/c2ccc(N(c4ccccc4)c4ccccc4)cc2)cc1C3(CCCC)CCCC` had an emission maximum (in Cc1ccccc1) of 450 nm.
In the case of `O=c1[nH]c2ccccc2[nH]1`, the emission maximum by setting is: (in C1CCOC1) 315 nm; (in CC#N) 313.01 nm; (in CC(C)=O) 307 nm; (in CCCCCCC) 297 nm; (in CCCCCl) 302 nm; (in CCCCO) 311 nm. The emission maximum runs as follows: (in CCCO) 310 nm; (in CCCOCCC) 310 nm; (in CCO) 310 nm.
Regarding `Cc1c(C)c(B(c2c(C)c(C)c(C#N)c(C)c2C)c2c(C)c(C)c(N3c4ccccc4Oc4ccccc43)c(C)c2C)c(C)c(C)c1C#N`, the emission maximum (in c1ccc([Si](c2ccccc2)(c2ccc(-n3c4ccccc4c4ccccc43)cc2)c2ccc(-n3c4ccccc4c4ccccc43)cc2)cc1) amounted to 533 nm.
In turn, `Cn1nc(-c2ccc(C(F)(F)F)cc2)cc1-c1ccccc1` registered an emission maximum (in ClCCl) of 341 nm.
With `CCN(CC)c1ccc2cc(-c3ccc(-c4c5ccccc5c(-c5ccc(-c6cc7ccc(N(CC)CC)cc7oc6=O)cc5)c5ccccc45)cc3)c(=O)oc2c1`, under “in ClC(Cl)Cl”, the emission maximum came out at 472 nm.
For the compound `COC(=O)C(NC(=O)OC(C)(C)C)c1ccc2oc(-c3ccc(OC(=O)c4ccccc4)cc3O)nc2c1` (centres undefined), the emission maximum by setting is: (in CC1CCCCC1) 480 nm; (in CC#N) 471 nm; (in CO) 405 nm.
Regarding `CCC1(CC)c2cc(-c3ccc4c(c3)C(CC)(CC)c3cc(C(C)(C)C)ccc3-4)ccc2-c2ccc(-c3ccc4c(c3)C(CC)(CC)c3cc(C(C)(C)C)ccc3-4)cc21`, the emission maximum (in CO) was 385.59 nm.
Consider `CCC1=C(C)C2=C(C)c3c(C)c(CC)c(C)n3[B-](F)(F)[N+]2=C1C`, for which the emission maximum turned out to be 537.2 nm (in C1CCCCC1); 534 nm (in C1CCOC1); 533.2 nm (in C1COCCO1); 530.4 nm (in CC#N); 532 nm (in CC(C)=O); 534 nm (in CC(C)O). Moreover, the emission maximum (in CCC(C)C) was 534.4 nm; the emission maximum (in CCCCCC) is 533.6 nm; the emission maximum (in CCCCCCCC) was determined as 535.2 nm; the emission maximum (in CCCCCCCCCCO) was 534.8 nm; the emission maximum (in CCCCCCCCO) is given as 534.4 nm; the emission maximum (in CCCCCCO) was 534.8 nm. Moreover, the emission maximum reads like this: (in CCCCO) 534.4 nm; (in CCCO) 534 nm; (in CCO) 532.4 nm; (in CCOC(C)=O) 531.6 nm; (in CCOCC) 532.8 nm; (in CN1CCCC1=O) 533.2 nm. Further, the emission maximum was determined as 532.8 nm (in CN(C)C=O); 531.6 nm (in CO); 536.4 nm (in Cc1ccccc1); 534 nm (in ClCCl); 535.2 nm (in OCC(F)(F)F); 536.4 nm (in OCCO). Also, the emission maximum is on record as 536.8 nm (in OCCOc1ccccc1) and 536.4 nm (in c1ccccc1).
